Legend:
Experiment in all cases: normalised response (% of control), CellTox Green; higher = less cell death (100 = DMSO, 0 = benzethonium chloride kill control)
Conditions in all cases: incubation time: 72 h
[1] = tested on: BT-474
Outline: (§1)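 Plates were normalised with 0.1 % DMSO as 100 and a positive kill control as 0. Breast cancer cell lines in 20 µl suspension had been seeded into 384-well plates with compound at 5 concentrations in 10-fold steps over a compound-specific 10,000-fold range, incubated 72 h, and read for CellTox Green fluorescence (485/520 nm) followed by CellTiter-Glo luminescence. Each value is the normalised signal at a single concentration.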

[2] = tested on: BT-549
Outline: as §1

[3] = tested on: CAL-120
Outline: as §1

[4] = tested on: CAL-148
Outline: as §1

[5] = tested on: CAL-85-1
Outline: as §1

[6] = tested on: DU-4475
Outline: as §1

[7] = tested on: HCC1143
Outline: as §1

[8] = tested on: HCC1599
Outline: as §1

[9] = tested on: HCC1937
Outline: as §1

[10] = tested on: HDQ-P1
Outline: as §1

[11] = tested on: Hs578T
Outline: as §1

[12] = tested on: MCF-10A
Outline: as §1

[13] = tested on: MDA-MB-231
Outline: as §1

[14] = tested on: MDA-MB-436
Outline: as §1

[15] = tested on: MDA-MB-453
Outline: as §1

[16] = tested on: MDA-MB-468
Outline: as §1

[17] = tested on: MFM-223
Outline: as §1

CO[C@H]1/C=C\C=C(/C)C(=O)NC2=CC(=O)C(NCCN(C)C)=C(C[C@@H](C)C[C@H](OC)[C@H](O)[C@@H](C)/C=C(\C)[C@@H]1OC(N)=O)C2=O [Alvespimycin] (100 nM)
normalised response [1]: 76.6%
normalised response [2]: 130%
normalised response [3]: 95%
normalised response [4]: 48.7%
normalised response [5]: 71.6%
normalised response [6]: 68.1%
normalised response [7]: 69.1%
normalised response [8]: 107%
normalised response [9]: 118%
normalised response [10]: 75.2%
normalised response [11]: 101%
normalised response [12]: 33.3%
normalised response [13]: 67.9%
normalised response [14]: 89.6%
normalised response [15]: 91.4%
normalised response [16]: 104%
normalised response [17]: 89.6%

CO[C@H]1/C=C\C=C(/C)C(=O)NC2=CC(=O)C(NCCN(C)C)=C(C[C@@H](C)C[C@H](OC)[C@H](O)[C@@H](C)/C=C(\C)[C@@H]1OC(N)=O)C2=O [Alvespimycin] (1000 nM)
normalised response [1]: 61.3%
normalised response [2]: 107%
normalised response [3]: 87.5%
normalised response [4]: 45.8%
normalised response [5]: 33.3%
normalised response [6]: 79.2%
normalised response [7]: -15.9%
normalised response [8]: 104%
normalised response [9]: 34.5%
normalised response [10]: 80%
normalised response [11]: -33.1%
normalised response [12]: 23.5%
normalised response [13]: 33%
normalised response [14]: 106%
normalised response [15]: 82.7%
normalised response [16]: 34.9%
normalised response [17]: 86.5%

CCC1(c2ccc(N)cc2)CCC(=O)NC1=O (stereo not drawn) [Aminoglutethimide] (1000 nM)
normalised response [1]: 102%
normalised response [2]: 117%
normalised response [3]: 99.8%
normalised response [4]: 104%
normalised response [5]: 105%
normalised response [6]: 99.2%
normalised response [7]: 106%
normalised response [8]: 96.2%
normalised response [9]: 97.3%
normalised response [10]: 104%
normalised response [11]: 71.8%
normalised response [12]: 109%
normalised response [13]: 76.7%
normalised response [14]: 98.2%
normalised response [15]: 101%
normalised response [16]: 177%
normalised response [17]: 97.6%

CCC1(c2ccc(N)cc2)CCC(=O)NC1=O (stereo not drawn) [Aminoglutethimide] (10000 nM)
normalised response [1]: 90%
normalised response [2]: 104%
normalised response [3]: 99.7%
normalised response [4]: 97%
normalised response [5]: 89.5%
normalised response [6]: 95.9%
normalised response [7]: 59.1%
normalised response [8]: 101%
normalised response [9]: 110%
normalised response [10]: 107%
normalised response [11]: 127%
normalised response [12]: 102%
normalised response [13]: 112%
normalised response [14]: 91.5%
normalised response [15]: 96.9%
normalised response [16]: 69%
normalised response [17]: 102%

C[C@@H](Oc1cc(-c2cnn(C3CCNCC3)c2)cnc1N)c1c(Cl)ccc(F)c1Cl [Crizotinib] (1000 nM)
normalised response [1]: 98.9%
normalised response [2]: 131%
normalised response [3]: 102%
normalised response [4]: 97.2%
normalised response [5]: 76.1%
normalised response [6]: 107%
normalised response [7]: 131%
normalised response [8]: 111%
normalised response [9]: 87%
normalised response [10]: 72.7%
normalised response [11]: 103%
normalised response [12]: 95.9%
normalised response [13]: 115%
normalised response [14]: 57.6%
normalised response [15]: 98.3%
normalised response [16]: 123%
normalised response [17]: 78.6%

Cc1ccc(-n2nc(C(C)(C)C)cc2NC(=O)Nc2ccc(OCCN3CCOCC3)c3ccccc23)cc1 [Doramapimod] (1000 nM)
normalised response [1]: 97.6%
normalised response [2]: 93.2%
normalised response [3]: 96.1%
normalised response [4]: 104%
normalised response [5]: 113%
normalised response [6]: 95.2%
normalised response [7]: 104%
normalised response [8]: 83.8%
normalised response [9]: 109%
normalised response [10]: 89.6%
normalised response [11]: 82.6%
normalised response [12]: 101%
normalised response [13]: 102%
normalised response [14]: 87.7%
normalised response [15]: 105%
normalised response [16]: 122%
normalised response [17]: 100%

O=P1(NCCCl)OCCCN1CCCl (stereo not drawn) [Ifosfamide] (1000 nM)
normalised response [1]: 98.2%
normalised response [2]: 107%
normalised response [3]: 99.5%
normalised response [4]: 100%
normalised response [5]: 100%
normalised response [6]: 95.8%
normalised response [7]: 107%
normalised response [8]: 98.7%
normalised response [9]: 70.1%
normalised response [10]: 67.6%
normalised response [11]: 89.2%
normalised response [12]: 90%
normalised response [13]: 96.2%
normalised response [14]: 58.7%
normalised response [15]: 107%
normalised response [16]: 139%
normalised response [17]: 94.9%

CC1(C)NC(=O)N(c2ccc([N+](=O)[O-])c(C(F)(F)F)c2)C1=O [Nilutamide] (1000 nM)
normalised response [1]: 102%
normalised response [2]: 123%
normalised response [3]: 101%
normalised response [4]: 92%
normalised response [5]: 103%
normalised response [6]: 103%
normalised response [7]: 72.8%
normalised response [8]: 107%
normalised response [9]: 98%
normalised response [10]: 88.5%
normalised response [11]: 100%
normalised response [12]: 115%
normalised response [13]: 115%
normalised response [14]: 103%
normalised response [15]: 94%
normalised response [16]: 115%
normalised response [17]: 95.9%

Cc1ccc(C(=O)Nc2ccc(CN3CCN(C)CC3)c(C(F)(F)F)c2)cc1C#Cc1cnc2cccnn12 [Ponatinib] (1000 nM)
normalised response [1]: 92.3%
normalised response [2]: 59.4%
normalised response [3]: 59.5%
normalised response [4]: 60.9%
normalised response [5]: 60.8%
normalised response [6]: 93.3%
normalised response [7]: 71.3%
normalised response [8]: 103%
normalised response [9]: 15%
normalised response [10]: 76.6%
normalised response [11]: 24.4%
normalised response [12]: 97%
normalised response [13]: -32.9%
normalised response [14]: 95.6%
normalised response [15]: 103%
normalised response [16]: 164%
normalised response [17]: 96.4%

— the supplement of paper PMC4862054
